Results reported in patent US11111220B2, “Propanamine derivatives for treating pain and pain related conditions” (ESTEVE PHARMACEUTICALS, S.A., priority 2017, dated 2021).
Read-outs that look alike come from different tables or passages of the source.

What was measured:
[1] = biological target: Human α2δ-1 Subunit of Cav2.2 Calcium Channel (Homo sapiens, UniProt P54289); experiment: Binding assay to human α2δ-1 subunit of Cav2.2 calcium channel ([3H]-Gabapentin); conditions: human α2δ-1 enriched membranes, 15 nM [3H]-Gabapentin, read-out: Ki(nM) alpha2delta Hum
Human α2δ-1 Subunit of Cav2.2 Calcium Channel, sequence (P54289 25-1103): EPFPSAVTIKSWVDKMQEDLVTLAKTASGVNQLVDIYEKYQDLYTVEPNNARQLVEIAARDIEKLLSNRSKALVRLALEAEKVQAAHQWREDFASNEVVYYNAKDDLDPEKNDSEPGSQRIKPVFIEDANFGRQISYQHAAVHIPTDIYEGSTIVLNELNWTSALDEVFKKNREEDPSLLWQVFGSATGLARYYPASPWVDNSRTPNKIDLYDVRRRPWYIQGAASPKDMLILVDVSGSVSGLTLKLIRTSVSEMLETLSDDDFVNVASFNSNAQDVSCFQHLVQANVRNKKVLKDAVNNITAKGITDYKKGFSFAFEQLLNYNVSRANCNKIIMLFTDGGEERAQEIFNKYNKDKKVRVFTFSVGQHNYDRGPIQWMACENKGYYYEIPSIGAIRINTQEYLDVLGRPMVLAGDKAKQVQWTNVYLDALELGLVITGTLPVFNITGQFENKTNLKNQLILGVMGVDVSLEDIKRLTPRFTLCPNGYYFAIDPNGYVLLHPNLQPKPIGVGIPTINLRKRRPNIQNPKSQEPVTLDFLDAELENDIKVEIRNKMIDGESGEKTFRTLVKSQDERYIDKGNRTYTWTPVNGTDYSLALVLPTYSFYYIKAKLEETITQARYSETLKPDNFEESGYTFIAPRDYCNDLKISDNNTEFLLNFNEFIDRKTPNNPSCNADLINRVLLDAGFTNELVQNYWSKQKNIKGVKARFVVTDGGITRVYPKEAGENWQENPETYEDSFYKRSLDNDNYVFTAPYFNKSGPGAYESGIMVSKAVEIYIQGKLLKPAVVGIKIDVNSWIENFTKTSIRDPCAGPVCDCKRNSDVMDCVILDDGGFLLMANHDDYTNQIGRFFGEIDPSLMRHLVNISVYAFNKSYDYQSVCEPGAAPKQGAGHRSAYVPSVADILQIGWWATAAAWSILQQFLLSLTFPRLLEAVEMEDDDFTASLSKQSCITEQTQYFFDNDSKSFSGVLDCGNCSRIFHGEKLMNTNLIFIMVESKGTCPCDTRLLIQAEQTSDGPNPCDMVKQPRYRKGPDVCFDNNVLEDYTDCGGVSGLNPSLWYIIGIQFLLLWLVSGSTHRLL
Description: Binding Assay to Human α2δ-1 Subunit of Cav2.2 Calcium Channel.
Human α2δ-1 enriched membranes (2.5 μg) were incubated with 15 nM of radiolabeled [3H]-Gabapentin in assay buffer containing Hepes-KOH 10 mM, pH 7.4.
(§1) NSB (non specific binding) was measured by adding 10 μM pregabalin. The binding of the test compound was measured in five different concentrations. After 60 min incubation at 27° C., binding reaction was terminated by filtering through Multiscreen GF/C (Millipore) presoaked in 0.5% polyethyleneimine in Vacuum Manifold Station, followed by 3 washes with ice-cold filtration buffer containing 50 mM Tris-HCl, pH 7.4.
(§2) Filter plates were dried at 60° C. for 1 hour and 30 μl of scintillation cocktail were added to each well before radioactivity reading.
(§3) Readings were performed in a Trilux 1450 Microbeta radioactive counter (Perkin Elmer).

[2] = biological target: Human Norepinephrine Transporter (NET) (Homo sapiens, UniProt P23975); experiment: Binding assay to human norepinephrine transporter (NET) ([3H]-Nisoxetin); conditions: Table 2 (dual compounds); human NET enriched membranes, 5 nM [3H]-Nisoxetin; read-out: Ki(nM) NET Hum
Human Norepinephrine Transporter (NET), sequence (P23975 whole entry): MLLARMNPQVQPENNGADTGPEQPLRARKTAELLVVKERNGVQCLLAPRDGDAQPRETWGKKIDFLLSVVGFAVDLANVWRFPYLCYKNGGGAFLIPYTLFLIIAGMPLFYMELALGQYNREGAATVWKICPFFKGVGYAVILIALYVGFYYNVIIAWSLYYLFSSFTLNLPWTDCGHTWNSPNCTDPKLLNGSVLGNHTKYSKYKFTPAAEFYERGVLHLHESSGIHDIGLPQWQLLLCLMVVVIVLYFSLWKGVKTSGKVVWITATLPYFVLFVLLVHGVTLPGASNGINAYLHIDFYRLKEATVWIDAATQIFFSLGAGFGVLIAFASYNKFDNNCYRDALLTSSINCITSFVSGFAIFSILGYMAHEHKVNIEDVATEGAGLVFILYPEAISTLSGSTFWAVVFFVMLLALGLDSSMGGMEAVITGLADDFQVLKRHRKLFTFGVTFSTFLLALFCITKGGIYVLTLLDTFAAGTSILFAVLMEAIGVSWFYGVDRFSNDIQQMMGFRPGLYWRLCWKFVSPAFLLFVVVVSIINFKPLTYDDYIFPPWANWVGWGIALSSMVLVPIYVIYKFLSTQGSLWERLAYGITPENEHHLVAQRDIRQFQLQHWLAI
Description: Binding Assay to Human Norepinephrine Transporter (NET).
Human norepinephrine transporter (NET) enriched membranes (5 μg) were incubated with 5 nM of radiolabeled [3H]-Nisoxetin in assay buffer containing 50 mM Tris-HCl, 120 mM NaCl, 5 mM KCl, pH 7.4.
as §1, with “desipramine.” for “pregabalin.”, “4°” for “27°”, “Tris-HCl, 0.9% NaCl,” for “Tris-HCl,”
as §2, §3

Row | SMILES | Ki ([1]; Table 1) | Ki ([1]; Table 2 (dual compounds)) | Ki [2]
1 | CNCCC(OCc1cccc(Nc2ccccc2)c1)c1ccccc1 (stereo not drawn) [Example 58, 3-((3-(Methylamino)-1-phenylpropoxy)methyl)-N-phenylaniline] | ≥ 3000 nM | ≥ 3000 nM | 100 to 500 nM
2 | CNCCC(Oc1cccc(C(=O)NCc2ccccc2)c1)c1ccccc1 (stereo not drawn) [Example 17, N-benzyl-3-(3-(methylamino)-1-phenylpropoxy)benzamide] | ≥ 3000 nM | ≥ 3000 nM | 500 to 1000 nM
3 | CNCCC(OCc1cccc(NC(=O)c2ccccc2)c1)c1ccccc1 (stereo not drawn) [Example 39, N-(3-((3-(methylamino)-1-phenylpropoxy)methyl)phenyl)benzamide] | ≥ 3000 nM | ≥ 3000 nM | 500 to 1000 nM
4 | CNCCNC(=O)c1cccc(OC(CCNC)c2ccccc2)c1 (stereo not drawn) [Example 20, 3-(3-(Methylamino)-1-phenylpropoxy)-N-(2-(methylamino)ethyl)benzamide] | 500 to 3000 nM | 500 to 3000 nM | 500 to 1000 nM
5 | CCNc1ncc(C(=O)N(C)c2cccc(COC(CCNC)c3cccs3)c2)c(N2CCCC2)n1 (stereo not drawn) [Example 38, 2-(Ethylamino)-N-methyl-N-(3-((3-(methylamino)-1-(thiophen-2-yl)propoxy)methyl)phenyl)-4-(pyrrolidin-1-yl)pyrimidine-5-carboxamide] | 500 to 3000 nM | 500 to 3000 nM | 500 to 1000 nM
6 | CNCCC(Oc1ccc(CN(C)Cc2ccccc2)c(F)c1)c1cccs1 (stereo not drawn) [Example 70, 3-(4-((Benzyl(methyl)amino)methyl)-3-fluorophenoxy)-N-methyl-3-(thiophen-2-yl)propan-1-amine] | ≥ 3000 nM | ≥ 3000 nM | 100 to 500 nM
7 | CNCCC(Oc1cccc(C(=O)Nc2ccccc2)c1)c1ccccc1 (stereo not drawn) [Example 13, 3-(3-(Methylamino)-1-phenylpropoxy)-N-phenylbenzamide] | ≥ 3000 nM | ≥ 3000 nM | 500 to 1000 nM
8 | CNCCC(OCc1cccc(NC(=O)c2ccccc2F)c1)c1cccs1 (stereo not drawn) [Example 48, 2-Fluoro-N-(3-((3-(methylamino)-1-(thiophen-2-yl)propoxy)methyl)phenyl)benzamide] | ≥ 3000 nM | ≥ 3000 nM | 500 to 1000 nM
9 | CNCCC(Oc1cccc(C(=O)NC2CCN(C)CC2)c1)c1ccccc1 (stereo not drawn) [Example 22, 3-(3-(Methylamino)-1-phenylpropoxy)-N-(1-methylpiperidin-4-yl)benzamide] | 500 to 3000 nM | 500 to 3000 nM | ≥ 1000 nM
10 | CCNc1ncc(C(=O)Nc2cccc(OC(CCNC)c3ccccc3)c2)c(N2CCCC2)n1 (stereo not drawn) [Example 50, 2-(Ethylamino)-N-(3-(3-(methylamino)-1-phenylpropoxy)phenyl)-4-(pyrrolidin-1-yl)pyrimidine-5-carboxamide] | ≥ 3000 nM | ≥ 3000 nM | 500 to 1000 nM
11 | CNCCC(OCc1cccc(NC(=O)c2ccccn2)c1)c1ccccc1 (stereo not drawn) [Example 43, N-(3-((3-(methylamino)-1-phenylpropoxy)methyl)phenyl)picolinamide] | ≥ 3000 nM | ≥ 3000 nM | 500 to 1000 nM
12 | CNCCC(OCc1cccc(NC(=O)c2ccccc2)c1)c1cccs1 (stereo not drawn) [Example 46, N-(3-((3-(methylamino)-1-(thiophen-2-yl)propoxy)methyl)phenyl)benzamide] | ≥ 3000 nM | ≥ 3000 nM | 500 to 1000 nM
13 | CNCCC(Oc1cccc(CNCc2ccccc2)c1)c1cccs1 (stereo not drawn) [Example 2, 3-(3-((Benzylamino)methyl)phenoxy)-N-methyl-3-(thiophen-2-yl)propan-1-amine] | 500 to 3000 nM | 500 to 3000 nM | 100 to 500 nM
14 | CNCCC(Oc1ccc(CNCc2ccccc2)c(F)c1)c1cccs1 (stereo not drawn) [Example 71, 3-(4-((Benzylamino)methyl)-3-fluorophenoxy)-N-methyl-3-(thiophen-2-yl)propan-1-amine] | ≥ 3000 nM | ≥ 3000 nM | < 100 nM
15 | CNCCC(OCc1cccc(NC(=O)c2cnc(OC)nc2)c1)c1ccccc1 (stereo not drawn) [Example 41, 2-Methoxy-N-(3-((3-(methylamino)-1-phenylpropoxy)methyl)phenyl)pyrimidine-5-carboxamide] | ≥ 3000 nM | ≥ 3000 nM | 500 to 1000 nM
16 | CNCCC(Oc1cccc(C(=O)Nc2cccc(-c3nnc(C)o3)c2)c1)c1ccccc1 (stereo not drawn) [Example 14, N-(3-(5-methyl-1,3,4-oxadiazol-2-yl)phenyl)-3-(3-(methylamino)-1-phenylpropoxy)benzamide] | ≥ 3000 nM | ≥ 3000 nM | 100 to 500 nM
17 | CNCCC(OCc1cccc(NC(=O)c2cccnc2)c1)c1ccccc1 (stereo not drawn) [Example 40, N-(3-((3-(methylamino)-1-phenylpropoxy)methyl)phenyl)nicotinamide] | ≥ 3000 nM |  | 
18 | CNCCC(Oc1cccc(C(=O)NCc2ccccc2)c1)c1cccs1 (stereo not drawn) [Example 10, N-benzyl-3-(3-(methylamino)-1-(thiophen-2-yl)propoxy)benzamide] | 500 to 3000 nM |  | 
19 | CNCCC(OCc1cccc(NCc2ccccc2)c1)c1ccccc1 (stereo not drawn) [Example 52, N-benzyl-3-((3-(methylamino)-1-phenylpropoxy)methyl)aniline] | ≥ 3000 nM |  | 
20 | CNCCC(Oc1cccc(C(=O)NCc2ccccn2)c1)c1ccccc1 (stereo not drawn) [Example 18, 3-(3-(Methylamino)-1-phenylpropoxy)-N-(pyridin-2-ylmethyl)benzamide] | ≥ 3000 nM | ≥ 3000 nM | 500 to 1000 nM
21 | CNCCC(Oc1cccc(N(C)C(C)=O)c1)c1ccccc1 (stereo not drawn) [Example 24, N-methyl-N-(3-(3-(methylamino)-1-phenylpropoxy)phenyl)acetamide] | ≥ 3000 nM |  | 
22 | CNCCC(Oc1cccc(CN(C)Cc2ccccc2)c1)c1cccs1 (stereo not drawn) [Example 6, 3-(3-((Benzyl(methyl)amino)methyl)phenoxy)-N-methyl-3-(thiophen-2-yl)propan-1-amine] | 100 to 500 nM | 100 to 500 nM | 500 to 1000 nM
23 | CNCCC(Oc1cccc(C(=O)Nc2cccnc2)c1)c1cccs1 (stereo not drawn) [Example 8, 3-(3-(Methylamino)-1-(thiophen-2-yl)propoxy)-N-(pyridin-3-yl)benzamide] | 500 to 3000 nM |  | 
24 | CNCCC(Oc1cccc(N(C)C(=O)CCCN)c1)c1ccccc1 (stereo not drawn) [Example 28, 4-Amino-N-methyl-N-(3-(3-(methylamino)-1-phenylpropoxy)phenyl)butanamide] | ≥ 3000 nM | ≥ 3000 nM | 500 to 1000 nM
25 | CN(C)CCC(OCc1cccc(NC(=O)c2ccccc2N(C)C)c1)c1cccs1 (stereo not drawn) [Example 55, 2-(Dimethylamino)-N-(3-((3-(dimethylamino)-1-(thiophen-2-yl)propoxy)methyl)phenyl)benzamide] | ≥ 3000 nM |  | 
26 | CNCCC(Oc1cccc(C(=O)Nc2cccnc2)c1)c1ccccc1 (stereo not drawn) [Example 15, 3-(3-(Methylamino)-1-phenylpropoxy)-N-(pyridin-3-yl)benzamide] | ≥ 3000 nM | ≥ 3000 nM | 100 to 500 nM
27 | CNCCC(Oc1cccc(N(C)C(=O)c2cccc(CN)c2)c1)c1ccccc1 (stereo not drawn) [Example 27, 3-(Aminomethyl)-N-methyl-N-(3-(3-(methylamino)-1-phenylpropoxy)phenyl)benzamide] | ≥ 3000 nM | ≥ 3000 nM | 500 to 1000 nM
28 | CCNc1ncc(C(=O)N(C)c2cccc(OC(CCNC)c3cccs3)c2)c(N2CCCC2)n1 (stereo not drawn) [Example 30, 2-(Ethylamino)-N-methyl-N-(3-(3-(methylamino)-1-(thiophen-2-yl)propoxy)phenyl)-4-(pyrrolidin-1-yl)pyrimidine-5-carboxamide] | 500 to 3000 nM |  | 
29 | CNCCC(Oc1cccc(C(=O)Nc2ccccc2CN(C)C)c1)c1cccs1 (stereo not drawn) [Example 11, N-(2-((dimethylamino)methyl)phenyl)-3-(3-(methylamino)-1-(thiophen-2-yl)propoxy)benzamide] | 500 to 3000 nM |  | 
30 | CNCCC(OCc1cccc(N(C)C(=O)c2cccnc2)c1)c1ccccc1 (stereo not drawn) [Example 32, N-methyl-N-(3-((3-(methylamino)-1-phenylpropoxy)methyl)phenyl)nicotinamide] | ≥ 3000 nM |  | 
